The values that follow come from PubChem BioAssay AID651630 (Sanford-Burnham Center for Chemical Genomics, 2012).

One assay concerns TAG. Description: triacylglycerol accumulation inhibitor potency, dose response, cell-based, panel, Nile Red and DAPI fluorescence, H9c2 (AID 651630).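 Note: cells exposed to compound overnight before fixation and staining.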 To be noted: H9c2 cells, Nile Red TAG fluorescence, oleic acid.
A further assay concerns DAPI. Described as above. To be noted: H9c2 cells, DAPI nuclear fluorescence (cytotoxicity counter-readout), oleic acid.

Calls of active or inactive are those of the source.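 Rule for the calls: active = lipid-stain IC50 at or below a set limit, with nuclear-stain toxicity IC50 at least five times higher; inactive = the rest.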

As a reminder, the IC50 is the midpoint of a concentration-inhibition curve. Regarding `CCCCCCN(C(=O)CCCCCN1C(=O)NC(c2ccc([N+](=O)[O-])cc2)C(C(=O)OCc2ccccc2)=C1C)C(C(=O)NCCCC)C1CCCCC1` (stereo not drawn), the IC50 is 5.66 µM in the assay with TAG (mean of runs), 3.7 µM in the assay on TAG (run 1) and 7.62 µM in the assay on TAG (run 2). Further, the IC50 cytotoxicity (DAPI nuclear signal decrease) is > 25 µM (inactive) in the assay with DAPI (mean of runs), greater than 25 µM in the assay with DAPI (run 1) and greater than 25 µM in the assay on DAPI (run 2).
For `COc1ccc(NC(=O)C2(C)Cc3c(-c4cccc(NC(C)=O)c4)ccnc3O2)cn1` (stereo not drawn), the IC50 in the assay with TAG (mean of runs) was > 25 µM (inactive); in the assay with TAG (run 1) it was greater than 25 µM; in the assay on TAG (run 2), greater than 25 µM. Also, the figures for the IC50 cytotoxicity (DAPI nuclear signal decrease) in the assay on DAPI (mean of runs), in the assay with DAPI (run 1) and in the assay on DAPI (run 2) were > 25 µM (inactive), greater than 25 µM and greater than 25 µM, respectively.
For `CCOC(=O)c1cc(CC)sc1NC(=O)c1cc([N+](=O)[O-])ccc1N1CCOCC1`, the IC50 with TAG (mean of runs) is > 25 µM (inactive); in the assay on TAG (run 1), greater than 25 µM; in the assay on TAG (run 2) it was greater than 25 µM. In addition, the IC50 cytotoxicity (DAPI nuclear signal decrease) is > 25 µM (inactive) in the assay with DAPI (mean of runs), greater than 25 µM in the assay on DAPI (run 1) and greater than 25 µM in the assay with DAPI (run 2).
In the case of `CCOC(=O)Cc1ccc(Nc2nc3cc(-c4sccc4C)sc3c(=O)n2C)cc1`, the IC50 in the assay on TAG (mean of runs) was 18.5 µM (inactive); in the assay on TAG (run 1), 12.9 µM; in the assay with TAG (run 2) it was 24.1 µM. The IC50 cytotoxicity (DAPI nuclear signal decrease) in the assay with DAPI (mean of runs) is > 25 µM (inactive); with DAPI (run 1), greater than 25 µM; with DAPI (run 2), greater than 25 µM.
Take `Cc1ccc(Sc2cc(N3CCOCC3)nc(-c3ccccc3)n2)cc1`: the results for the IC50 with TAG (mean of runs), with TAG (run 1) and in the assay with TAG (run 2) were > 25 µM (inactive), greater than 25 µM and greater than 25 µM, respectively. Besides, the IC50 cytotoxicity (DAPI nuclear signal decrease) in the assay with DAPI (mean of runs) was > 25 µM (inactive); in the assay with DAPI (run 1), greater than 25 µM; in the assay on DAPI (run 2), greater than 25 µM.
Regarding `O=C(Cc1coc2ccc3ccccc3c12)Nc1nccs1`, the IC50 in the assay with TAG (mean of runs) was > 25 µM (inactive); with TAG (run 1), greater than 25 µM; in the assay on TAG (run 2), greater than 25 µM. Besides, the IC50 cytotoxicity (DAPI nuclear signal decrease) in the assay with DAPI (mean of runs) was > 25 µM (inactive); in the assay on DAPI (run 1), greater than 25 µM; with DAPI (run 2), greater than 25 µM.
Turning to `COc1ccc(/C=C2/CCCc3ccccc3C2=O)cc1`, the figures for the IC50 in the assay with TAG (mean of runs), in the assay on TAG (run 1) and in the assay on TAG (run 2) were > 25 µM (inactive), greater than 25 µM and greater than 25 µM, respectively. The IC50 cytotoxicity (DAPI nuclear signal decrease) with DAPI (mean of runs) was > 25 µM (inactive); in the assay with DAPI (run 1), greater than 25 µM; in the assay with DAPI (run 2), greater than 25 µM.
Regarding `CC(C)N1CSC(=S)N(Cc2ccccc2)C1`, the IC50 in the assay with TAG (mean of runs) was > 25 µM (inactive); in the assay with TAG (run 1), greater than 25 µM; in the assay on TAG (run 2) it was greater than 25 µM. Further, the values for the IC50 cytotoxicity (DAPI nuclear signal decrease) in the assay with DAPI (mean of runs), with DAPI (run 1) and in the assay with DAPI (run 2) were > 25 µM (inactive), greater than 25 µM and greater than 25 µM, respectively.
With `C[C@H]1CN([C@@H](C)CO)C(=O)c2cc(NC(=O)Nc3cccc4ccccc34)ccc2O[C@@H]1CN(C)Cc1ccc(-c2ccccc2)cc1`, the IC50 was 20.2 µM with TAG (run 1) and greater than 25 µM with TAG (run 2). For the same compound, the figures for the IC50 cytotoxicity (DAPI nuclear signal decrease) with DAPI (mean of runs), in the assay on DAPI (run 1) and in the assay on DAPI (run 2) were > 25 µM (inactive), greater than 25 µM and greater than 25 µM, respectively.
For `Cc1cccn2c(=O)c3cc(C(=O)NC4CCCC4)c(=N)n(C4CCCC4)c3nc12`, the IC50 was 11.9 µM in the assay with TAG (mean of runs), 8.07 µM with TAG (run 1) and 15.8 µM in the assay on TAG (run 2). For the same compound, the IC50 cytotoxicity (DAPI nuclear signal decrease) was > 25 µM (inactive) in the assay on DAPI (mean of runs), greater than 25 µM in the assay with DAPI (run 1) and greater than 25 µM in the assay on DAPI (run 2).
Turning to `O=C(c1cnn2c1NC(c1ccc(Br)cc1)CC2C(F)(F)F)N1CCN(C23CC4CC(CC(C4)C2)C3)CC1` (stereo not drawn), the figures for the IC50 in the assay with TAG (mean of runs), in the assay on TAG (run 1) and in the assay on TAG (run 2) were > 25 µM (inactive), greater than 25 µM and greater than 25 µM, respectively. Also, the results for the IC50 cytotoxicity (DAPI nuclear signal decrease) in the assay on DAPI (mean of runs), with DAPI (run 1) and with DAPI (run 2) were > 25 µM (inactive), greater than 25 µM and greater than 25 µM, respectively.
`Nc1ccc2ccccc2c1N=Nc1ccccc1`: the figures for the IC50 with TAG (mean of runs), in the assay with TAG (run 1) and in the assay with TAG (run 2) were 9.51 µM, 8.88 µM and 10.1 µM, respectively. Also, the IC50 cytotoxicity (DAPI nuclear signal decrease) was > 25 µM (inactive) with DAPI (mean of runs), greater than 25 µM in the assay on DAPI (run 1) and greater than 25 µM with DAPI (run 2).
With `O=C(N/N=C/c1ccc2c(c1)OCO2)c1cc(-c2ccncc2)nc2ccccc12`, the IC50 in the assay on TAG (mean of runs) is 14.7 µM; in the assay with TAG (run 1) it was 16.8 µM; with TAG (run 2), 12.6 µM. Further, the results for the IC50 cytotoxicity (DAPI nuclear signal decrease) with DAPI (mean of runs), in the assay with DAPI (run 1) and in the assay with DAPI (run 2) were > 25 µM (inactive), greater than 25 µM and greater than 25 µM, respectively.
Turning to `COc1ccc2nc3cc([N+](=O)[O-])ccc3c(NNc3ccc([N+](=O)[O-])cc3)c2c1`, the values for the IC50 with TAG (mean of runs), in the assay on TAG (run 1) and with TAG (run 2) were 5.93 µM, 10.4 µM and 1.44 µM, respectively. The IC50 cytotoxicity (DAPI nuclear signal decrease) was > 25 µM (inactive) in the assay with DAPI (mean of runs), greater than 25 µM in the assay on DAPI (run 1) and greater than 25 µM in the assay on DAPI (run 2).
Turning to `COc1ccc2[nH]c3c(c2c1)CCN1C(=O)C(CC(=O)NCc2cccc(C(F)(F)F)c2)C[C@H](C(=O)N2CCCCC2)[C@@]31CCc1ccccc1` (stereo partly drawn), the IC50 in the assay with TAG (mean of runs) was 10 µM; in the assay with TAG (run 1), 14.8 µM; with TAG (run 2), 5.34 µM. For the same compound, the IC50 cytotoxicity (DAPI nuclear signal decrease) in the assay on DAPI (mean of runs) is > 25 µM (inactive); with DAPI (run 1), greater than 25 µM; in the assay on DAPI (run 2) it was greater than 25 µM.
Consider `Cc1c(C#N)c(O)n(CCO)c(=O)c1N=Nc1ccc2c(c1)COC2=O`, for which the IC50 in the assay with TAG (mean of runs) was 16.5 µM (inactive); in the assay with TAG (run 1), 14.3 µM; in the assay with TAG (run 2) it was 18.6 µM. In addition, the IC50 cytotoxicity (DAPI nuclear signal decrease) is 19.9 µM (inactive) with DAPI (mean of runs), 24.4 µM with DAPI (run 1) and 15.3 µM in the assay on DAPI (run 2).
As for `CCN1C(=O)[C@H]2[C@@H](c3ccc(-c4cccc(Cl)c4)cc3)N[C@@](Cc3ccccc3)(C(=O)OC)[C@H]2C1=O`, the IC50 in the assay on TAG (mean of runs) was 20 µM (inactive); in the assay with TAG (run 1), 15.9 µM; with TAG (run 2), 24.1 µM. In addition, the IC50 cytotoxicity (DAPI nuclear signal decrease) is > 25 µM (inactive) in the assay on DAPI (mean of runs), greater than 25 µM in the assay on DAPI (run 1) and greater than 25 µM in the assay with DAPI (run 2).
For `CN(C)C(=S)N=c1ssc(=S)n1Cc1ccco1`, the IC50 is > 25 µM (inactive) in the assay on TAG (mean of runs), greater than 25 µM in the assay with TAG (run 1) and greater than 25 µM in the assay with TAG (run 2). For the same compound, the IC50 cytotoxicity (DAPI nuclear signal decrease) is > 25 µM (inactive) with DAPI (mean of runs), greater than 25 µM in the assay with DAPI (run 1) and greater than 25 µM in the assay with DAPI (run 2).
For the compound `CCOc1ccc(NC(=O)c2ccc(NC(=O)CSc3nc4ccccc4c(=O)[nH]3)cc2)cc1`, the concentration for half-maximal inhibition (IC50) is 24.6 µM with TAG (run 1) and greater than 25 µM in the assay with TAG (run 2). The IC50 cytotoxicity (DAPI nuclear signal decrease) with DAPI (mean of runs) was > 25 µM (inactive); with DAPI (run 1), greater than 25 µM; with DAPI (run 2), greater than 25 µM.
Turning to `COc1ccc(S(=O)(=O)N2N=C(C)Oc3ccccc3C2=O)cc1`, the IC50 is > 25 µM (inactive) in the assay on TAG (mean of runs), greater than 25 µM in the assay with TAG (run 1) and greater than 25 µM in the assay with TAG (run 2). For the same compound, the figures for the IC50 cytotoxicity (DAPI nuclear signal decrease) in the assay with DAPI (mean of runs), in the assay with DAPI (run 1) and with DAPI (run 2) were > 25 µM (inactive), greater than 25 µM and greater than 25 µM, respectively.
As to `OCCCn1c(C2CCCN2c2nc(-c3ccc(F)cc3)cs2)nc2cc(C(F)(F)F)ccc21` (stereo not drawn), the IC50 with TAG (mean of runs) was 14 µM; with TAG (run 1), 14.1 µM; with TAG (run 2), 13.9 µM. Besides, the IC50 cytotoxicity (DAPI nuclear signal decrease) was > 25 µM (inactive) in the assay on DAPI (mean of runs), greater than 25 µM with DAPI (run 1) and greater than 25 µM in the assay on DAPI (run 2).
Turning to `COc1ccc([C@H]2CC(=O)C=C(c3ccc(OC)cc3OC)C2)cc1`, the IC50 was > 25 µM (inactive) in the assay with TAG (mean of runs), greater than 25 µM with TAG (run 1) and greater than 25 µM in the assay on TAG (run 2). Also, the IC50 cytotoxicity (DAPI nuclear signal decrease) in the assay on DAPI (mean of runs) is > 25 µM (inactive); in the assay with DAPI (run 1), greater than 25 µM; in the assay on DAPI (run 2), greater than 25 µM.
Regarding `COC(=O)C1=C(c2ccc(OCc3ccccc3)cc2)C[C@@H]2CC[C@H]1N2C(=O)NCc1ccc(C(C)(C)C)cc1`, the IC50 is 16.7 µM (inactive) with TAG (mean of runs), 14.2 µM in the assay on TAG (run 1) and 19.1 µM with TAG (run 2). For the same compound, the results for the IC50 cytotoxicity (DAPI nuclear signal decrease) in the assay on DAPI (mean of runs), in the assay on DAPI (run 1) and in the assay with DAPI (run 2) were > 25 µM (inactive), greater than 25 µM and greater than 25 µM, respectively.
`C[C@@H]1CN([C@@H](C)CO)C(=O)c2cccc(NC(=O)C3CCCCC3)c2O[C@@H]1CN(C)Cc1ccc(Cl)c(Cl)c1`: the IC50 with TAG (mean of runs) was 11.5 µM; with TAG (run 1), 9.78 µM; in the assay on TAG (run 2), 13.3 µM. Moreover, the IC50 cytotoxicity (DAPI nuclear signal decrease) in the assay on DAPI (mean of runs) was > 25 µM (inactive); in the assay with DAPI (run 1), greater than 25 µM; in the assay with DAPI (run 2), greater than 25 µM.
Take `O=[N+]([O-])c1ccccc1/C=C/C=N/Nc1ccc(S(=O)(=O)Nc2ccc(Cl)cc2)cc1[N+](=O)[O-]`: the values for the IC50 in the assay on TAG (mean of runs), in the assay on TAG (run 1) and in the assay with TAG (run 2) were 4.41 µM, 3.5 µM and 5.32 µM, respectively. Further, the IC50 cytotoxicity (DAPI nuclear signal decrease) in the assay with DAPI (run 1) and with DAPI (run 2) was greater than 25 µM each time.
As to `CCOC(=O)c1[nH]c(C)c(C(=O)Nc2ccccc2C)c1C`, the IC50 is > 25 µM (inactive) with TAG (mean of runs), greater than 25 µM in the assay on TAG (run 1) and greater than 25 µM with TAG (run 2). For the same compound, the IC50 cytotoxicity (DAPI nuclear signal decrease) in the assay on DAPI (mean of runs) is > 25 µM (inactive); with DAPI (run 1), greater than 25 µM; in the assay on DAPI (run 2), greater than 25 µM.
